Measurements published in ChEMBL document CHEMBL3885861, “Open TG-GATES”.

Species on record: Rattus norvegicus
Test: Open TG-GATES - Regimen: Single
Assay type: toxicity, organism-based, Sprague-Dawley
Parameters: regimen Single, gender Male, age 6 weeks
Conditions: in vivo, po, 1000 mg/kg, route gavage, dose level Middle; for APTT / Bas / Eos / Fbg / Hb / Ht / Lym / MCH / MCHC / MCV / Mono / Neu / Plat / RBC / Ret / WBC: tissue Blood; for KIDNEY_L / KIDNEY_R / KIDNEY_TOTAL: tissue Kidney; for LIVER: tissue Liver; for ALP / ALT / AST / BUN / CRE / Ca / Cl / DBIL / GLC / IP / K / LDH / Na / PL / RALB / TBIL / TC / TG / TP / gamma-GTP: tissue Plasma

CC(=O)Oc1ccccc1C(=O)O [ASPIRIN]
TERMINAL_BW (3 h): 217.1 g
APTT (3 h): 19 s
Bas (3 h): 0%
Eos (3 h): 1%
Fbg (3 h): 217.4 mg/dL
Hb (3 h): 13.6 g/dL
Ht (3 h): 37.9%
Lym (3 h): 69.4%
MCH (3 h): 21.9 pg
MCHC (3 h): 35.9%
MCV (3 h): 60.8 fL
Mono (3 h): 2.8%
Neu (3 h): 25.4%
Plat (3 h): 121 x10_4/uL
RBC (3 h): 624.8 x10_4/ul
Ret (3 h): 8%
WBC (3 h): 72.1 x10_2/uL
KIDNEY_L (3 h): 0.9 g
KIDNEY_R (3 h): 1 g
KIDNEY_TOTAL (3 h): 1.9 g
LIVER (3 h): 8.8 g
ALP (3 h): 835 IU/L
ALT (3 h): 44.4 IU/L
AST (3 h): 79 IU/L
BUN (3 h): 15.8 mg/dL
CRE (3 h): 0.4 mg/dL
Ca (3 h): 8.7 mg/dL
Cl (3 h): 104 meq/L
DBIL (3 h): 0.06 mg/dL
GLC (3 h): 203.8 mg/dL
IP (3 h): 8.3 mg/dL
K (3 h): 3.4 meq/L
LDH (3 h): 205.8 IU/L
Na (3 h): 141 meq/L
PL (3 h): 88.8 mg/dL
RALB (3 h): 3.4 g/dL
TBIL (3 h): 0.1 mg/dL
TC (3 h): 54.6 mg/dL
TG (3 h): 26.2 mg/dL
TP (3 h): 5.5 g/dL
gamma-GTP (3 h): 1 IU/L
TERMINAL_BW (6 h): 218.6 g
APTT (6 h): 19.9 s
Bas (6 h): 0%
Eos (6 h): 0.6%
Fbg (6 h): 233.4 mg/dL
Hb (6 h): 13.7 g/dL
Ht (6 h): 37.9%
Lym (6 h): 66%
MCH (6 h): 21.5 pg
MCHC (6 h): 36.2%
MCV (6 h): 59.5 fL
Mono (6 h): 3.4%
Neu (6 h): 29%
Plat (6 h): 132.5 x10_4/uL
RBC (6 h): 637.2 x10_4/ul
Ret (6 h): 7.9%
WBC (6 h): 97.1 x10_2/uL
KIDNEY_L (6 h): 1 g
KIDNEY_R (6 h): 0.9 g
KIDNEY_TOTAL (6 h): 1.9 g
LIVER (6 h): 8.5 g
ALP (6 h): 820.8 IU/L
ALT (6 h): 35.4 IU/L
AST (6 h): 78.2 IU/L
BUN (6 h): 14.8 mg/dL
CRE (6 h): 0.4 mg/dL
Ca (6 h): 8.3 mg/dL
Cl (6 h): 104.2 meq/L
DBIL (6 h): 0.056 mg/dL
GLC (6 h): 209.4 mg/dL
IP (6 h): 8.1 mg/dL
K (6 h): 3.3 meq/L
LDH (6 h): 236.6 IU/L
Na (6 h): 140.2 meq/L
PL (6 h): 108 mg/dL
RALB (6 h): 3.6 g/dL
TBIL (6 h): 0.098 mg/dL
TC (6 h): 68.6 mg/dL
TG (6 h): 16.8 mg/dL
TP (6 h): 5.7 g/dL
gamma-GTP (6 h): 1 IU/L
TERMINAL_BW (9 h): 217.1 g
APTT (9 h): 21.6 s
Bas (9 h): 0%
Eos (9 h): 1%
Fbg (9 h): 232.4 mg/dL
Hb (9 h): 13.7 g/dL
Ht (9 h): 38.1%
Lym (9 h): 69.4%
MCH (9 h): 21.4 pg
MCHC (9 h): 35.8%
MCV (9 h): 59.7 fL
Mono (9 h): 2.4%
Neu (9 h): 27%
Plat (9 h): 128.3 x10_4/uL
RBC (9 h): 638.6 x10_4/ul
Ret (9 h): 7.8%
WBC (9 h): 93.3 x10_2/uL
KIDNEY_L (9 h): 1 g
KIDNEY_R (9 h): 0.9 g
KIDNEY_TOTAL (9 h): 1.9 g
LIVER (9 h): 7.5 g
ALP (9 h): 903.8 IU/L
ALT (9 h): 33.2 IU/L
AST (9 h): 79.8 IU/L
BUN (9 h): 13.2 mg/dL
CRE (9 h): 0.4 mg/dL
Ca (9 h): 8.5 mg/dL
Cl (9 h): 106.4 meq/L
DBIL (9 h): 0.05 mg/dL
GLC (9 h): 202.4 mg/dL
IP (9 h): 7.7 mg/dL
K (9 h): 3.2 meq/L
LDH (9 h): 227.2 IU/L
Na (9 h): 140.6 meq/L
PL (9 h): 102.4 mg/dL
RALB (9 h): 3.5 g/dL
TBIL (9 h): 0.098 mg/dL
TC (9 h): 62.8 mg/dL
TG (9 h): 9.2 mg/dL
TP (9 h): 5.5 g/dL
gamma-GTP (9 h): 1.2 IU/L
TERMINAL_BW (24 h): 217 g
APTT (24 h): 29.4 s
Bas (24 h): 0.4%
Eos (24 h): 1%
Fbg (24 h): 225 mg/dL
Hb (24 h): 14.4 g/dL
Ht (24 h): 39.3%
Lym (24 h): 72%
MCH (24 h): 22.1 pg
MCHC (24 h): 36.6%
MCV (24 h): 60.4 fL
Mono (24 h): 2.2%
Neu (24 h): 24.2%
Plat (24 h): 131.6 x10_4/uL
RBC (24 h): 650.8 x10_4/ul
Ret (24 h): 7.1%
WBC (24 h): 89.6 x10_2/uL
KIDNEY_L (24 h): 0.9 g
KIDNEY_R (24 h): 0.9 g
KIDNEY_TOTAL (24 h): 1.9 g
LIVER (24 h): 8.1 g
ALP (24 h): 933.8 IU/L
ALT (24 h): 38 IU/L
AST (24 h): 110 IU/L
BUN (24 h): 14.8 mg/dL
CRE (24 h): 0.4 mg/dL
Ca (24 h): 8.7 mg/dL
Cl (24 h): 105.6 meq/L
DBIL (24 h): 0.052 mg/dL
GLC (24 h): 214 mg/dL
IP (24 h): 7.3 mg/dL
K (24 h): 3.5 meq/L
LDH (24 h): 227.6 IU/L
Na (24 h): 140.8 meq/L
PL (24 h): 75.4 mg/dL
RALB (24 h): 3.5 g/dL
TBIL (24 h): 0.1 mg/dL
TC (24 h): 40.2 mg/dL
TG (24 h): 23.4 mg/dL
TP (24 h): 5.7 g/dL
gamma-GTP (24 h): 1.6 IU/L
